Where two headings read alike, the source gives them in different places. Starred links: 1 amine or outer side, 2 acyl side, 3 side chain; linkers in the order of their positions; H or OH if unused. Positions of bridges follow the written chain, without caps; N, C: chain ends. Non-standard residues stand in square brackets, D forms with d. Residues, ends and D or L forms follow the SMILES beside them. Phe(3-OCH2COOH) = N[C@@H](Cc1cccc(OCC(=O)O)c1)C(=O)O; Phe(4-COOH) = N[C@@H](Cc1ccc(C(=O)O)cc1)C(=O)O; Gly(N(CH2)3COOH) = O=C(O)CCCNCC(=O)O; X1 = CCCCCCC[C@H](N[*:1])C(=O)[*:2]; NMeF = CN[C@@H](Cc1ccccc1)C(=O)O; dAad = N[C@H](CCCC(=O)O)C(=O)O; d(hCys) = N[C@H](CCS)C(=O)O; NMeC = CN[C@@H](CS)C(=O)O; dNMeC = CN[C@H](CS)C(=O)O; hCys = N[C@@H](CCS)C(=O)O; NMeA = CN[C@@H](C)C(=O)O; Inp = O=C(O)C1CCNCC1; Sar = CNCC(=O)O
How the values were obtained:
Myostatin = molecular target: T1, Myostatin (Homo sapiens, UniProt O14793); assay: HepG2 reporter gene assay, Evaluation Procedure (2): 2-concentrations assay, myostatin inhibition; assay type: cell-based; details: HepG2
T1 construct: active myostatin (also called mature myostatin) is a homodimer consisting of two C-terminal growth factor domains; purchased R&D systems 788-G8/CF
T1 sequence (O14793 267-375): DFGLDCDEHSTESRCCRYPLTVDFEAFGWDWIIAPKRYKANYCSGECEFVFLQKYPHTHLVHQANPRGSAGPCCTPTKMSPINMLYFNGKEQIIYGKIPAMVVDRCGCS
Summary of the method: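 Myostatin inhibition was measured in a luciferase reporter assay using HepG2 cells transfected with a pGL3 vector containing 12 CAGA repeats upstream of luciferase. After 20 to 24 hours with 10 ng/mL myostatin, cells received One-Glo:PBS (1:1) at 100 µL/well, were shaken for 5 min, and 20 µL/well was moved to 384-well plates and read on an Envision 2104.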

GDF-11 = molecular target: T2, GDF-11 (Homo sapiens, UniProt O95390); assay: HepG2 reporter gene assay, Evaluation Procedure (2): 2-concentrations assay, GDF-11 inhibition; assay type: cell-based; details: for inhibition: read-out: inhibition rate (GDF-11 inhibition assay)
T2 construct: purchased R&D systems 1958-GD-G8/CF
T2 sequence (O95390 299-407): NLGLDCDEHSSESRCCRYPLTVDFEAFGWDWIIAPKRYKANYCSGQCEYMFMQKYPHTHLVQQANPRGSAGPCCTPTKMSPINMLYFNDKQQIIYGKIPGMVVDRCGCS
Summary of the method: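 HepG2 cells carrying the transfected pGL3(CAGA)12-luc reporter, a pGL3 vector with luciferase placed downstream of 12 CAGA repeats, were stimulated with GDF-11 at a final 10 ng/mL together with test peptide. Blank wells received no GDF-11 and no peptide. Plates were incubated 20 to 24 hours at 37°C with 5% CO2. Luminescence from One-Glo substrate was read to calculate percent inhibition.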

[1] = Table 7-3/7-4, myostatin 10 ng/mL, peptide at the higher of the 2 concentrations, read-out: inhibition rate (myostatin inhibition assay)
[2] = Table 7-3/7-4, myostatin 10 ng/mL, peptide at the lower of the 2 concentrations, read-out: inhibition rate (myostatin inhibition assay)
[3] = HepG2, first GDF-11 column of Table 7-3/7-4, GDF-11 10 ng/mL, peptide at the lower of the 2 concentrations
[4] = HepG2, second GDF-11 column of Table 7-3/7-4, GDF-11 10 ng/mL, peptide at the higher of the 2 concentrations

| inhibition at 0.1 µM (Myostatin; [1]) [%] | inhibition at 0.03 µM (Myostatin; [2]) [%] | inhibition (GDF-11; [3]) [%] | inhibition (GDF-11; [4]) [%] | inhibition at 0.03 µM (Myostatin; peptide 30nM, Myostatin 10 ng/mL, read-out: Myostatin Inhibition 30nM) [%] | inhibition at 0.1 µM (Myostatin; peptide 100nM, Myostatin 10 ng/mL, read-out: Myostatin Inhibition 100nM) [%] | inhibition at 0.03 µM (GDF-11; HepG2, peptide 30nM, GDF-11 10 ng/mL, read-out: GDF11 Inhibition 30nM) [%] | inhibition at 0.1 µM (GDF-11; HepG2, peptide 100nM, GDF-11 10 ng/mL, read-out: GDF11 Inhibition 100nM) [%] | SMILES |
| --- | --- | --- | --- | --- | --- | --- | --- | --- |
| 100 | 100 | 0 | 0 |  |  |  |  | CCCCCCC[C@@H]1NC(=O)[C@H](Cc2ccccc2)N(C)C(=O)[C@H](CCCNC(=N)N)NC(=O)[C@H](Cc2ccc(C(=O)O)cc2)NC(=O)[C@H](Cc2cccc(OCC(=O)O)c2)NC(=O)[C@H](C)N(C)C(=O)[C@H]([C@@H](C)CC)NC(=O)[C@H](Cc2ccccc2)N(C)C(=O)[C@H](Cc2ccc(O)cc2)NC(=O)[C@H](Cc2c[nH]c3ccccc23)NC(=O)[C@H](C)NC(=O)CN(CCCC(=O)O)C(=O)CSC[C@H](C(=O)N2CCC(C(N)=O)CC2)NC(=O)[C@H](Cc2ccccc2)N(C)C(=O)[C@H](C)N(C)C1=O [Myostatin_99_v433] ({CH2CO}-[Gly(N(CH2)3COOH)]AWY[NMeF]I[NMeA][Phe(3-OCH2COOH)][Phe(4-COOH)]R[NMeF][X1][NMeA][NMeF][dC][Inp]-NH2; thioether N-15) |
| 100 | 98 | 0 | 0 |  |  |  |  | CCCCCCC[C@@H]1NC(=O)[C@H](Cc2ccccc2)N(C)C(=O)[C@H](CCCNC(=N)N)NC(=O)[C@H](Cc2ccc(C(=O)O)cc2)NC(=O)[C@H](Cc2cccc(OCC(=O)O)c2)NC(=O)[C@H](C)N(C)C(=O)[C@H]([C@@H](C)CC)NC(=O)[C@H](Cc2ccccc2)N(C)C(=O)[C@H](Cc2ccc(O)cc2)NC(=O)[C@H](Cc2c[nH]c3ccccc23)NC(=O)[C@H](C)NC(=O)CN(CCCC(=O)O)C(=O)CCC[C@H](C(=O)O)NC(=O)[C@H](Cc2ccccc2)N(C)C(=O)[C@H](C)N(C)C1=O [Myostatin_99_v434] ([Gly(N(CH2)3COOH)]AWY[NMeF]I[NMeA][Phe(3-OCH2COOH)][Phe(4-COOH)]R[NMeF][X1][NMeA][NMeF][dAad]-OH; lactam N-15) |
| 100 | 100 | 2 | 36 |  |  |  |  | CCCCCCC[C@@H]1NC(=O)[C@H](Cc2ccccc2)N(C)C(=O)[C@H](CCCNC(=N)N)NC(=O)[C@H](Cc2ccc(C(=O)O)cc2)NC(=O)[C@H](Cc2cccc(OCC(=O)O)c2)NC(=O)[C@H](C)N(C)C(=O)[C@H]([C@@H](C)CC)NC(=O)[C@H](Cc2ccccc2)N(C)C(=O)[C@H](Cc2ccc(O)cc2)NC(=O)[C@H](Cc2c[nH]c3ccccc23)NC(=O)[C@H](C)NC(=O)CN(CCCC(=O)O)C(=O)CSC[C@H](C(N)=O)N(C)C(=O)[C@H](Cc2ccccc2)N(C)C(=O)[C@H](C)N(C)C1=O [Myostatin_99_v439] ({CH2CO}-[Gly(N(CH2)3COOH)]AWY[NMeF]I[NMeA][Phe(3-OCH2COOH)][Phe(4-COOH)]R[NMeF][X1][NMeA][NMeF][dNMeC]-NH2; thioether N-15) |
| 100 | 99 | 0 | 9 |  |  |  |  | CCCCCCC[C@@H]1NC(=O)[C@H](Cc2ccccc2)N(C)C(=O)[C@H](CCCNC(=N)N)NC(=O)[C@H](Cc2ccc(C(=O)O)cc2)NC(=O)[C@H](Cc2cccc(OCC(=O)O)c2)NC(=O)[C@H](C)N(C)C(=O)[C@H]([C@@H](C)CC)NC(=O)[C@H](Cc2ccccc2)N(C)C(=O)[C@H](Cc2ccc(O)cc2)NC(=O)[C@H](Cc2c[nH]c3ccccc23)NC(=O)[C@H](C)NC(=O)CN(CCCC(=O)O)C(=O)CSC[C@@H](C(N)=O)N(C)C(=O)[C@H](Cc2ccccc2)N(C)C(=O)[C@H](C)N(C)C1=O [Myostatin_99_v440] ({CH2CO}-[Gly(N(CH2)3COOH)]AWY[NMeF]I[NMeA][Phe(3-OCH2COOH)][Phe(4-COOH)]R[NMeF][X1][NMeA][NMeF][NMeC]-NH2; thioether N-15) |
| 100 | 100 | 0 | 0 |  |  |  |  | CCCCCCC[C@@H]1NC(=O)[C@H](Cc2ccccc2)N(C)C(=O)[C@H](CCCNC(=N)N)NC(=O)[C@H](Cc2ccc(C(=O)O)cc2)NC(=O)[C@H](Cc2cccc(OCC(=O)O)c2)NC(=O)[C@H](C)N(C)C(=O)[C@H]([C@@H](C)CC)NC(=O)[C@H](Cc2ccccc2)N(C)C(=O)[C@H](Cc2ccc(O)cc2)NC(=O)[C@H](Cc2c[nH]c3ccccc23)NC(=O)[C@H](C)NC(=O)CN(CCCC(=O)O)C(=O)CSCC[C@H](C(=O)O)NC(=O)[C@H](Cc2ccccc2)N(C)C(=O)[C@H](C)N(C)C1=O [Myostatin_99_v441] ({CH2CO}-[Gly(N(CH2)3COOH)]AWY[NMeF]I[NMeA][Phe(3-OCH2COOH)][Phe(4-COOH)]R[NMeF][X1][NMeA][NMeF][d(hCys)]-OH; thioether N-15) |
| 100 | 100 | 0 | 0 |  |  |  |  | CCCCCCC[C@@H]1NC(=O)[C@H](Cc2ccccc2)N(C)C(=O)[C@H](CCCNC(=N)N)NC(=O)[C@H](Cc2ccc(C(=O)O)cc2)NC(=O)[C@H](Cc2cccc(OCC(=O)O)c2)NC(=O)[C@H](C)N(C)C(=O)[C@H]([C@@H](C)CC)NC(=O)[C@H](Cc2ccccc2)N(C)C(=O)[C@H](Cc2ccc(O)cc2)NC(=O)[C@H](Cc2c[nH]c3ccccc23)NC(=O)[C@H](C)NC(=O)CN(CCCC(=O)O)C(=O)CSCC[C@@H](C(=O)O)NC(=O)[C@H](Cc2ccccc2)N(C)C(=O)[C@H](C)N(C)C1=O [Myostatin_99_v442] ({CH2CO}-[Gly(N(CH2)3COOH)]AWY[NMeF]I[NMeA][Phe(3-OCH2COOH)][Phe(4-COOH)]R[NMeF][X1][NMeA][NMeF][hCys]-OH; thioether N-15) |
| 100 | 100 | 0 | 0 |  |  |  |  | CCCCCCC[C@@H]1NC(=O)[C@H](Cc2ccccc2)N(C)C(=O)[C@H](CCCNC(=N)N)NC(=O)[C@H](Cc2ccc(C(=O)O)cc2)NC(=O)[C@H](Cc2cccc(OCC(=O)O)c2)NC(=O)[C@H](C)N(C)C(=O)[C@H]([C@@H](C)CC)NC(=O)[C@H](Cc2ccccc2)N(C)C(=O)[C@H](Cc2ccc(O)cc2)NC(=O)[C@H](Cc2c[nH]c3ccccc23)NC(=O)[C@H](C)NC(=O)CN(CCCC(=O)O)C(=O)[C@H](C)N(C)C(=O)[C@@H](C)NC(=O)[C@H](Cc2ccccc2)N(C)C(=O)[C@H](C)N(C)C1=O [Myostatin_99_v450] (cyclo(AWY[NMeF]I[NMeA][Phe(3-OCH2COOH)][Phe(4-COOH)]R[NMeF][X1][NMeA][NMeF][dA][NMeA][Gly(N(CH2)3COOH)])) |
| 100 | 99 | 1 | 0 |  |  |  |  | CCCCCCC[C@@H]1NC(=O)[C@H](Cc2ccccc2)N(C)C(=O)[C@H](CCCNC(=N)N)NC(=O)[C@H](Cc2ccc(C(=O)O)cc2)NC(=O)[C@H](Cc2cccc(OCC(=O)O)c2)NC(=O)[C@H](C)N(C)C(=O)[C@H]([C@@H](C)CC)NC(=O)[C@H](Cc2ccccc2)N(C)C(=O)[C@H](Cc2ccc(O)cc2)NC(=O)[C@H](Cc2c[nH]c3ccccc23)NC(=O)[C@H](C)NC(=O)[C@H](C)N(C)C(=O)[C@H](C)N(C)C(=O)CNC(=O)[C@H](Cc2ccccc2)N(C)C(=O)[C@H](C)N(C)C1=O [Myostatin_99_v455] (cyclo(AWY[NMeF]I[NMeA][Phe(3-OCH2COOH)][Phe(4-COOH)]R[NMeF][X1][NMeA][NMeF]G[NMeA][NMeA])) |
|  |  |  |  | 56 | 87 | 0 | 19 | CC[C@H](C)[C@@H]1NC(=O)[C@H](Cc2ccccc2)N(C)C(=O)[C@H](Cc2ccc(O)cc2)NC(=O)[C@H](Cc2c[nH]c3ccccc23)NC(=O)[C@H](CCCNC(=N)N)NC(=O)[C@H](C)NC(=O)CSC[C@@H](C(N)=O)NC(=O)[C@H](Cc2ccccc2)N(C)C(=O)[C@H](C)N(C)C(=O)[C@H](CC(C)C)NC(=O)[C@H](Cc2ccccc2)N(C)C(=O)[C@H](CCCNC(=N)N)NC(=O)[C@H](Cc2ccc(O)cc2)NC(=O)[C@H](Cc2ccc(O)cc2)NC(=O)CN(C)C1=O [Myostatin_Myostatin_000099] ({CH2CO}-ARWY[NMeF]I[Sar]YYR[NMeF]L[NMeA][NMeF]C-NH2; thioether N-15) |
